Among the data in patent publication US20260226048A1, “MULTI-CYCLIC IRAK AND FLT3 INHIBITING COMPOUNDS AND USES THEREOF” (CHILDREN'S HOSPITAL MEDICAL CENTER, priority 2023, published 2026) are Kd values, retold here.

One assay deals with T1, FLT3 D835H (Homo sapiens, UniProt P36888, D835H).
T1 construct: purchased DiscoverX (KINOMEscan); host or cells: E. coli BL21-derived host (T7 phage) or HEK-293
T1 sequence (P36888 27-993 D835H): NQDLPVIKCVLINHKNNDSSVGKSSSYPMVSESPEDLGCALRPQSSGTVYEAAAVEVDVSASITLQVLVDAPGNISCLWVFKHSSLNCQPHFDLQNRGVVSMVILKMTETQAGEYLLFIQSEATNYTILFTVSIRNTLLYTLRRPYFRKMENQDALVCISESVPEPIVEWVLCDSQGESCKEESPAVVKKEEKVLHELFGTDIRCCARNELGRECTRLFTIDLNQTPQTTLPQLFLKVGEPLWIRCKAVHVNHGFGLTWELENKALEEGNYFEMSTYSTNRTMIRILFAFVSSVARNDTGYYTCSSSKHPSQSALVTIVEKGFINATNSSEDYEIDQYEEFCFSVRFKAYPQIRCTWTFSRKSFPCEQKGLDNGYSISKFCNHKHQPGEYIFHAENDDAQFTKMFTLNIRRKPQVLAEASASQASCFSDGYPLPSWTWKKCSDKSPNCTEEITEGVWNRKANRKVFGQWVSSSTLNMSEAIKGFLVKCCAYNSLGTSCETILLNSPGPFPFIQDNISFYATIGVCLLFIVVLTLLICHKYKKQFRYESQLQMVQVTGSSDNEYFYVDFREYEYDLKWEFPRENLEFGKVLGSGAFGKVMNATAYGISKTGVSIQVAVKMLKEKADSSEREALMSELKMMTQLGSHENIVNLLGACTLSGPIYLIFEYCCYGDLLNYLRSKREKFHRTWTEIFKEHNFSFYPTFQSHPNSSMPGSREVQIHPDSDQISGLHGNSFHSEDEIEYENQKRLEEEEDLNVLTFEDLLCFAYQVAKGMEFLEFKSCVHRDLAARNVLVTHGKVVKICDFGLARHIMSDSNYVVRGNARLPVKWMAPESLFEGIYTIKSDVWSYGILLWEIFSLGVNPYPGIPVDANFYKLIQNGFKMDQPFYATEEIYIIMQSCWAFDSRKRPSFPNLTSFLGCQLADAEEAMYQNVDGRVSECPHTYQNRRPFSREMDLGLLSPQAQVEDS
In words: DiscoverX KINOMEscan competition binding assay, FLT3 D835H. Conditions: 11-point 3-fold dilution. An excerpt: (§1) […]. […] As a result, the data report thermodynamic interaction affinities (Kd values), rather than IC50 values that are dependent on ATP concentrations. The assay uses a DNA-tagged version of the protein kinase, and an immobilized ligand bound to a solid support. Compounds that directly or indirectly prevent kinase binding to the immobilized ligand reduce the amount of kinase captured on the solid support, which is detected using an ultra-sensitive qPCR method. Affinity constants reported from the assay have been reported to be independent of the immobilized ligand used that is coupled to the solid support (See supplemental information in Fabian, M. A. et. al., (2005) Nat. Biotechnol. 23, 329-336; Wodicka, L. M. et. al., (2010) Chem. Biol. 17, 1241-1249.)
(§2) Kinase-tagged T7 phage strains were prepared in an E. coli host derived from the BL21 strain. E. coli were grown to log-phase and infected with T7 phage and incubated with shaking at 32° C. until lysis. The lysates were centrifuged and filtered to remove cell debris. The remaining kinases were produced in HEK-293 cells and subsequently tagged with DNA for qPCR detection. Streptavidin-coated magnetic beads were treated with biotinylated small molecule ligands for 30 minutes at room temperature to generate affinity resins for kinase assays. The liganded beads were blocked with excess biotin and washed with blocking buffer (SeaBlock (Pierce), 1% BSA, 0.05% Tween 20, 1 mM DTT) to remove unbound ligand and to reduce non-specific binding. […] Test compounds were prepared as 111× stocks in 100% DMSO. Kds were determined using an 11-point 3-fold compound dilution series with three DMSO control points. All compounds for Kd measurements are distributed by acoustic transfer (non-contact dispensing) in 100% DMSO. The compounds were then diluted directly into the assays such that the final concentration of DMSO was 0.9%. All reactions were performed in polypropylene 384-well plates. Each was a final volume of 0.02 mL. […] The kinase concentration in the eluates was measured by qPCR.
(§3) Binding constants (Kds) were calculated with a standard dose-response curve using the Hill equation. The Hill Slope was set to −1. Curves were fitted using a non-linear least square fit with the Levenberg-Marquardt algorithm.

For a further assay, the target named is T2, FLT3 ITD, F691L (Homo sapiens, UniProt P36888, F691L, form not given).
T2 construct: fused on or other part: DNA tag for qPCR detection (kinase-tagged T7 phage, or made in HEK-293 cells and then tagged with DNA)
T2 sequence (P36888 1-993 F691L): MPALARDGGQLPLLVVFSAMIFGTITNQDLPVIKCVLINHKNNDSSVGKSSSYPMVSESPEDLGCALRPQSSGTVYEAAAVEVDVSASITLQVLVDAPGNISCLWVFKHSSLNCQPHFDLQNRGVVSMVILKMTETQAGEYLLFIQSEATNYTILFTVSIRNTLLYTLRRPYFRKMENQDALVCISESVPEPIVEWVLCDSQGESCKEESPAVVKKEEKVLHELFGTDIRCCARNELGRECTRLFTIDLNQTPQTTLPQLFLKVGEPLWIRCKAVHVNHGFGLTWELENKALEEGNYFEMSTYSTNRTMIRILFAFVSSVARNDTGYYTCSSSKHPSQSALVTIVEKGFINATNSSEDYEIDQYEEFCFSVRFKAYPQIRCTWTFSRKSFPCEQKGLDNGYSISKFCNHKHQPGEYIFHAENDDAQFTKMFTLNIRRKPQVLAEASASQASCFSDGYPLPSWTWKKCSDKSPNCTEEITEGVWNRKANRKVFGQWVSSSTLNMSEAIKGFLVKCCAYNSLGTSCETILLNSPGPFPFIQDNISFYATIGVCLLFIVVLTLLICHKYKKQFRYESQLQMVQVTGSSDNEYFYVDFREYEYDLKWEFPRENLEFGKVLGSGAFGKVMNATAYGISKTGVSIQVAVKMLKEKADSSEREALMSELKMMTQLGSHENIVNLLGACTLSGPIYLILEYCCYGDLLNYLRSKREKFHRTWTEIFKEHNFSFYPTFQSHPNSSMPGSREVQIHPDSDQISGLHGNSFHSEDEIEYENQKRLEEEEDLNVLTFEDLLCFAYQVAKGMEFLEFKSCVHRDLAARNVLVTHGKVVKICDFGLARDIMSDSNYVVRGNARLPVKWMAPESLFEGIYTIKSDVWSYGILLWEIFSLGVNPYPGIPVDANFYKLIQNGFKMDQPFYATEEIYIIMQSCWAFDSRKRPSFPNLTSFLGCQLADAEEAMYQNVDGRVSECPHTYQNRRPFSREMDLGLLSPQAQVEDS
In words: DiscoverX KINOMEscan competition binding assay, FLT3 ITD, F691L. The following applies: 11-point 3-fold dilution.
From the text: as §1, §2, §3

By Kd is commonly meant a measure of binding affinity in units of concentration. Read a low Kd as a tighter complex. As to `COc1cc2ncc(-c3nc(N[C@H]4CNCC[C@@H]4F)ncc3F)n2nc1C1CC1` [Compound 1a, 4-(6-cyclopropyl-7-methoxyimidazo[1,2-b]pyridazin-3-yl)-5-fluoro-N-((3S,4S)-4-fluoropiperidin-3-yl)pyrimidin-2-amine], the Kd at FLT3 D835H was 220 pM; on FLT3 ITD, F691L, under 170 pM.
For `FC(F)COc1cc2ncc(-c3ccnc(N[C@H]4CNCC[C@@H]4F)n3)n2nc1C1CC1` [Compound 4a, 4-(6-cyclopropyl-7-(2,2-difluoroethoxy)imidazo[1,2-b]pyridazin-3-yl)-N-((3 S,4S)-4-fluoropiperidin-3-yl)pyrimidin-2-amine] the same measures were 700 pM and under 170 pM.
For `COc1cc2ncc(-c3nc(N[C@H]4CNCC[C@@H]4F)ncc3F)n2nc1C(C)(C)O` [Compound 45a, 2-(3-(5-fluoro-2-(((3S,4S)-4-fluoropiperidin-3-yl)amino)pyrimidin-4-yl)-7-methoxyimidazo[1,2-b]pyridazin-6-yl)propan-2-ol] the same measures were 420 pM and 190 pM.
As for `CC(C)(O)c1ccc2ncc(-c3nc(N[C@H]4CNCC[C@@H]4F)ncc3F)n2c1` [Compound 46a, 2-(3-(5-fluoro-2-(((3S,4S)-4-fluoropiperidin-3-yl)amino)pyrimidin-4-yl)imidazo[1,2-a]pyridin-6-yl)propan-2-ol], the Kd at FLT3 D835H is 670 pM; on FLT3 ITD, F691L, 220 pM.
As to `COc1cc2ncc(-c3nc(N[C@H]4CNCC[C@@H]4F)ncc3F)n2nc1C1COC1` [Compound 92a, 5-fluoro-N-((3S,4S)-4-fluoropiperidin-3-yl)-4-(7-methoxy-6-(oxetan-3-yl)imidazo[1,2-b]pyridazin-3-yl)pyrimidin-2-amine], the Kd at FLT3 D835H was under 170 pM; on FLT3 ITD, F691L, under 170 pM.
With `CC(C)(O)c1cn2c(-c3nc(N[C@H]4CNCC[C@@H]4F)ncc3F)cnc2cn1` [Compound 100a, 2-(3-(5-fluoro-2-(((3S,4S)-4-fluoropiperidin-3-yl)amino)pyrimidin-4-yl)imidazo[1,2-a]pyrazin-6-yl)propan-2-ol], the equilibrium dissociation constant (Kd) stood at 6300 pM on FLT3 D835H and 3400 pM on FLT3 ITD, F691L.
Turning to `COc1cc2ncc(-c3nc(N[C@H]4CNCC[C@@H]4F)ncc3F)n2nc1N1CCCS1(=O)=O` [Compound 112a, 2-(3-(5-fluoro-2-(((3S,4S)-4-fluoropiperidin-3-yl)amino)pyrimidin-4-yl)-7-methoxyimidazo[1,2-b]pyridazin-6-yl)isothiazolidine 1,1-dioxide], the dissociation constant (Kd) on FLT3 D835H is under 170 pM; on FLT3 ITD, F691L it was under 170 pM.
